# Assay results as given in article PMC10762035, “Molecular basis of human trace amine-associated receptor 1 activation” (Nature Communications, 2024).
# Positions count from the first letter of the chain named. “And” between values parts separate entries of the source, which are not always exact repeats. Identical values can stand only once. Like-named read-outs stand apart in the source and are kept apart here.
# How the values were obtained:
# Assay type in all cases: cell-based
# hTA1 C88/178S = target: T1, hTA1 C88/178S (Homo sapiens, UniProt Q96RJ0, C178S/C88S); experiment: GloSensor cAMP accumulation assay, C88S/C178S double mutant; conditions: for Normalized Luminescence Counts (N=2): log[Compound], single replicate values
# T1 construct: expressed in transfected cells; host or cells: HEK293T
# T1 sequence (Q96RJ0 1-339 C88S/C178S): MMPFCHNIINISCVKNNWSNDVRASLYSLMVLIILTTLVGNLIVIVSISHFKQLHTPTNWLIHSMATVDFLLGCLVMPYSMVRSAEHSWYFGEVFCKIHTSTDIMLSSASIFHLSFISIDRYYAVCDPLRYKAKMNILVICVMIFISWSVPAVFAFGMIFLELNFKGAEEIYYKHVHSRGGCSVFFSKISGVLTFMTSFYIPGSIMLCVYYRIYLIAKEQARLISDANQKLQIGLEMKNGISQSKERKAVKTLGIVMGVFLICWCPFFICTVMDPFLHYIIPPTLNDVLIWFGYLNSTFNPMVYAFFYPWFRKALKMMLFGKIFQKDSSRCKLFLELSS
# hTA1 C178S = target: T2, hTA1 C178S (Homo sapiens, UniProt Q96RJ0, C178S); experiment: GloSensor cAMP accumulation assay, C178S mutant; conditions: for C178S - Normalized Luminescence Counts (N=2): log[Compound], single replicates
# T2 construct: expressed in transfected cells; host or cells: HEK293T
# T2 sequence (Q96RJ0 1-339 C178S): T1 sequence (Q96RJ0 1-339 C88S/C178S) with S88C
# hTA1 R83H = target: T3, hTA1 R83H (Homo sapiens, UniProt Q96RJ0, R83H); experiment: GloSensor cAMP accumulation assay, R83H mutant;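 also: cells transiently co-expressing hTA1 and a cAMP GloSensor, luminescence read 30 min after agonist addition at room temperature, concentration–response fitted by non-linear regression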
# T3 construct: expressed in transfected cells; host or cells: HEK293T
# T3 sequence (Q96RJ0 1-339 R83H): T1 sequence (Q96RJ0 1-339 C88S/C178S) with R83H, S88C, S178C
# hTA1 T271N = target: T4, hTA1 T271N (Homo sapiens, UniProt Q96RJ0, T271N); experiment: GloSensor cAMP accumulation assay, T271N mutant; conditions: for Emax: T271N
# T4 construct: expressed in transfected cells; host or cells: HEK293T
# T4 sequence (Q96RJ0 1-339 T271N): T1 sequence (Q96RJ0 1-339 C88S/C178S) with S88C, S178C, T271N
# [1] = C88S, C178S, each row is one independent experiment, 3 replicates
smiles,measurement,setting,value
CCc1[nH]nc(C(=O)Nc2ccc([C@H]3CNCCO3)cc2)c1C [ralmitaront],"ΔEmax values (each mutant value - WT average), Mean",hTA1 C88/178S; [1],18.4827 and 32.9242
same,"ΔpEC50 values (each mutant value - WT average), Mean",hTA1 C88/178S; [1],-0.118 and 0.09825
same,Normalized Luminescence Counts (N=2),"hTA1 C88/178S; C88S, C178S, M = -5",55.2389 and 58.8007 and 61.0622 and 66.9199 and 93.0497 and 63.144
same,Normalized Luminescence Counts (N=2),"hTA1 C88/178S; C88S, C178S, M = -5.522",59.988 and 60.3272 and 50.3202 and 55.743 and 72.6594 and 83.3832
same,Normalized Luminescence Counts (N=2),"hTA1 C88/178S; C88S, C178S, M = -6",50.4332 and 47.6629 and 57.5569 and 67.8262 and 71.7532 and 58.9149
same,Normalized Luminescence Counts (N=2),"hTA1 C88/178S; C88S, C178S, M = -6.522",36.7513 and 35.5075 and 46.8149 and 59.519 and 56.6493 and 50.3056
same,Normalized Luminescence Counts (N=2),"hTA1 C88/178S; C88S, C178S, M = -7",22.2779 and 25.1613 and 25.3874 and 33.9934 and 41.0922 and 21.3061
same,Normalized Luminescence Counts (N=2),"hTA1 C88/178S; C88S, C178S, M = -7.522",14.9281 and 10.2921 and 11.3663 and 21.004 and 25.2331 and 32.0299
same,Normalized Luminescence Counts (N=2),"hTA1 C88/178S; C88S, C178S, M = -8",4.13 and 3.564 and 4.525 and 7.562 and 10.4313 and 11.0354
same,Normalized Luminescence Counts (N=2),"hTA1 C88/178S; C88S, C178S, M = -8.522",1.1331 and 2.8292 and 0.7939 and 5.598 and 0.6137 and 2.8793
same,Normalized Luminescence Counts (N=2),"hTA1 C88/178S; C88S, C178S, M = -9",0.3981 and 0.4547 and 0.9635 and -0.2925 and -0.1415 and 0.7648
same,Normalized Luminescence Counts (N=2),"hTA1 C88/178S; C88S, C178S, M = -9.522",-0.2803 and 1.19 and 0.172 and -1.501 and -1.35 and -2.105
same,Normalized Luminescence Counts (N=2),"hTA1 C88/178S; C88S, C178S, M = -10",0.0589 and 1.359 and 0.002362 and -0.8967 and -0.2925 and -1.35
same,Normalized Luminescence Counts (N=2),"hTA1 C88/178S; C88S, C178S, M = -10.522",1.077 and 0.1154 and 0.002362 and -1.501 and -1.199 and -1.048
same,Normalized Luminescence Counts (N=2),"hTA1 C88/178S; C88S, C178S, M = -11",-0.2238 and 0.172 and 0.7373 and -1.35 and -0.1415 and -1.048
same,Normalized Luminescence Counts (N=2),"hTA1 C88/178S; C88S, C178S, M = -11.522",0.0589 and 0.7373 and 0.5112 and -2.105 and 0.7648 and -0.8967
same,Normalized Luminescence Counts (N=2),"hTA1 C88/178S; C88S, C178S, M = -12",0.5112 and 0.7939 and 5.317 and -0.4436 and -0.5946 and -1.048
same,Normalized Luminescence Counts (N=2),"hTA1 C88/178S; C88S, C178S, M = -12.522",0.7373 (2×) and 1.416 and -1.199 and -0.7456 and -2.105
same,"Emax values, Mean","hTA1 C88/178S; C88S, C178S, normalized (β-PEA = 100), each row is one independent experiment, 3 replicates",58.5968 and 73.0383
same,Emax,hTA1 C88/178S; read-out: Span ± SEM (Emax normalized to β-PEA),65.8 ± 7.22%
same,"ΔpEC50 values (each mutant value - WT average), Mean","hTA1 C178S; C178S, each row one experiment (N=2), 3 replicates",-0.4487 and -0.0445
same,Emax,"hTA1 C178S; C178S, n=2, read-out: Span ± SEM (Emax normalized to β-PEA)",69.5 ± 2.9%
same,Emax,"hTA1 C178S; C178S, relative to β-PEA, read-out: Emax",69.5%
same,"Emax values, Mean","hTA1 C178S; C178S, β-PEA = 100, each row one experiment (N=2), 3 replicates",72.4383
same,Emax,"hTA1 C178S; C178S, β-PEA = 100, each row one experiment (N=2), 3 replicates, read-out: Emax values, Mean",66.6%
same,C178S - Normalized Luminescence Counts (N=2),hTA1 C178S; M = -5,73.8012 and 62.4927 and 60.9506 and 66.8043 and 64.022 and 61.0303
same,C178S - Normalized Luminescence Counts (N=2),hTA1 C178S; M = -5.522,57.6328 and 63.2871 and 59.3151 and 75.9888 and 75.2109 and 62.2569
same,C178S - Normalized Luminescence Counts (N=2),hTA1 C178S; M = -6,43.2869 and 48.3804 and 55.2496 and 74.2835 and 69.4968
same,C178S - Normalized Luminescence Counts (N=2),hTA1 C178S; M = -6.522,30.9035 and 28.8942 and 35.67 and 44.4265 and 49.1234 and 56.9916
same,C178S - Normalized Luminescence Counts (N=2),hTA1 C178S; M = -7,14.8753 and 16.3239 and 23.7072 and 27.2542 and 34.494 and 27.6431
same,C178S - Normalized Luminescence Counts (N=2),hTA1 C178S; M = -7.522,4.642 and 7.866 and 7.3986 and 13.4924 and 12.7145 and 13.5821
same,C178S - Normalized Luminescence Counts (N=2),hTA1 C178S; M = -8,1.277 and 2.445 and 2.959 and 5.594 and 6.073 and 4.936
same,C178S - Normalized Luminescence Counts (N=2),hTA1 C178S; M = -8.522,-0.2183 and 0.7163 and 2.0247 and 0.7179 and 1.526 and 2.842
same,C178S - Normalized Luminescence Counts (N=2),hTA1 C178S; M = -9,-0.3585 and 0.1555 and -0.03139 and 0.4785 and 0.3289 and 2.214
same,C178S - Normalized Luminescence Counts (N=2),hTA1 C178S; M = -9.522,-1.433 and 1.137 and -0.6389 and -0.0001415 and -0.6284 and -0.3292
same,C178S - Normalized Luminescence Counts (N=2),hTA1 C178S; M = -10,-1.1529 and -1.2 and -1.106 and 0.05969 and -0.9575 and -1.5259
same,C178S - Normalized Luminescence Counts (N=2),hTA1 C178S; M = -10.522,-0.5454 and -0.2183 and -0.8258 and -2.334 and -1.855 and -2.154
same,C178S - Normalized Luminescence Counts (N=2),hTA1 C178S; M = -11,-0.3585 and -0.2183 and -0.4987 and 0.6281 and 0.3589 and 0.4785
same,C178S - Normalized Luminescence Counts (N=2),hTA1 C178S; M = -11.522,-0.3585 and -0.07812 and 0.1555 and 0.5384 and -0.08989 and -0.419
same,C178S - Normalized Luminescence Counts (N=2),hTA1 C178S; M = -12,-0.966 (2×) and -0.3585 and -0.8079 and -2.005 and -0.9874
same,C178S - Normalized Luminescence Counts (N=2),hTA1 C178S; M = -12.522,1.09 and -0.2183 and -0.8725 and 0.3888 and -1.137 and -2.364
same,ΔEmax values (each mutant value - WT average),hTA1 R83H; R83H mutant minus WT average,-30.9711
same,"Emax values, Mean","hTA1 R83H; R83H mutant, β-PEA = 100, each line an independent experiment, 3 replicates",9.143 and -4.118
same,Emax,"hTA1 R83H; R83H, n=2, read-out: Span ± SEM (Emax normalized to β-PEA)",2.51 ± 6.63%
same,"ΔpEC50 values (each mutant value - WT average), Mean","hTA1 T271N; T271N mutant minus WT average, Figure 5B",0.04727 and -0.1115
same,"Emax values, Mean","hTA1 T271N; T271N mutant, Figure 5B, β-PEA = 100, each row one independent experiment (3 replicates)",121.192 and 53.6921
same,Emax,"hTA1 T271N; n=2, read-out: Span ± SEM (Emax normalized to β-PEA)",87.4 ± 33.8%
same,Emax,"hTA1 T271N; relative to β-PEA, read-out: Emax",87.4%
